Laboratory results published in US20040054194A1, “Method for producing 1-pyrrolines” (priority 2003, published 2004).
Where two headings read alike, the source gives them in different places.

How the values were obtained:
[1] = logP determination by HPLC on a reversed-phase column (C 18), EEC Directive 79/831 Annex V.A8; format: physicochemical; conditions: reversed-phase HPLC column (C 18), pH 2.3, HPLC
Description: The logp values given in the tables and Preparation Examples above are determined in accordance with EEC Directive 79/831 Annex V .A8 by HPLC (High Performance Liquid Chromatography) on a reversed-phase column (C 18). Temperature: 43° C.
The determination is carried out in the acidic range at pH 2.3 using the mobile phases 0.1% aqueous phosphoric acid and acetonitrile; linear gradient from 10% acetonitrile to 90% acetonitrile.
Calibration is carried out using unbranched alkan-2-ones (of 3 to 16 carbon atoms) with known logp values (determination of the logp values by the retention times using linear interpolation between two successive alkanones).

[2] = acidic range pH 2.3, pyrrolines of the formula (I), read-out: logP*
[3] = pH 2.3, read-out: log P (pH 2.3)
[4] = acidic range pH 2.3, amides of the formula (II), read-out: logP*

Q: With `Fc1cccc(F)c1C1=NC(c2ccc(Br)cc2)CC1` (centres unmarked) [Example I-1, 2-(4-bromophenyl)-5-(2,6-difluorophenyl)-3,4-dihydro-2H-pyrrole] as the molecule, how does the melting point read?
A: 48 °C

Q: And the chromatographic logP [1, 2]?
A: 2.77

Q: What about the chromatographic logP [1, 3] of the same molecule?
A: 2.74

Q: What does the source list for `Fc1cccc(F)c1C1=NC(c2ccc(Cl)cc2)CC1` (centres unmarked) [Example I-2, 2-(4-chlorophenyl)-5-(2,6-difluorophenyl)-3,4-dihydro-2H-pyrrole]?
A: chromatographic logP [1, 2]: 2.59; chromatographic logP [1, 3]: 2.59

Q: What does the source list for `CC(=O)NC(CCC(=O)c1c(F)cccc1F)c1ccc(Br)cc1` (centres unmarked) [II-1, N-[1-(4-bromophenyl)-4-(2,6-difluorophenyl)-4-oxobutyl]acetamide]?
A: melting point: 162 to 163 °C; chromatographic logP [1, 4]: 2.67; chromatographic logP [1, 3]: 2.67

Q: With `CC(=O)NC(CCC(=O)c1c(F)cccc1F)c1ccc(Cl)cc1` (centres unmarked) [II-2, N-[1-(4-chlorophenyl)-4-(2,6-difluorophenyl)-4-oxobutyl]acetamide] as the molecule, how does the chromatographic logP [1, 4] read?
A: 2.59

Q: And the chromatographic logP [1, 3]?
A: 2.59

Q: With `CC(=O)NC(CCC(=O)c1c(F)cccc1F)c1ccc(-c2ccc(OC(F)(F)F)cc2)cc1` (centres unmarked) [II-3] as the molecule, how does the chromatographic logP [1, 4] read?
A: 3.79

Q: What does the source list for `O=C(c1c(F)cccc1F)C1CC1c1ccc(Br)cc1` (centres unmarked) [III-1, [2-(4-bromophenyl)cyclopropyl](2,6-difluoro-phenyl)methanone]?
A: melting point: 64 to 65 °C; chromatographic logP ([1]; acidic range pH 2.3, cyclopropanes of the formula (III), read-out: logP*): 4.22; chromatographic logP [1, 3]: 4.24

Q: Which melting point does the source give for `O=C(/C=C/c1ccc(Br)cc1)c1c(F)cccc1F` [VI-1, (2E)-3-(4-bromophenyl)-1-(2,6-difluorophenyl)-2-propen-1-one] here?
A: 71 °C

Q: What about the chromatographic logP ([1]; acidic range pH 2.3, chalcones of the formula (VI), read-out: logP*) of the same molecule?
A: 3.98

Q: What about the chromatographic logP [1, 3] of the same molecule?
A: 3.98
